Laboratory results from PubChem BioAssay AID2060492 (Molecular Pharmacology Branch, DTP, NCI, 2025).

Test system: 695427-040-R-J1-PDC complex spheroids, viability percent T/C
Assay: Anticancer human tumor 695427-040-R-J1-PDC patient-derived colon adenocarcinoma cell line growth inhibition [GQUAD]
Settings: for IC50: curve of first compound; for viability, T/C: stronger effect = lower value
How it was run: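 Viability of tumor cells grown as complex spheroids with endothelial and stromal cells, exposed to drug combinations. Top concentration at or near clinical Cmax (else 10 microM), diluted in half-log increments.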

[1] = second compound 0.0316 µM, first compound 0.0316 µM
[2] = second compound 0.0316 µM, first compound 0.1 µM
[3] = second compound 0.0316 µM, first compound 0.316 µM
[4] = second compound 0.0316 µM, first compound 1 µM
[5] = second compound 0.0316 µM, first compound 3.16 µM
[6] = second compound 0.0316 µM, first compound 10 µM
[7] = second compound 0.1 µM, first compound 0.0316 µM
[8] = second compound 0.1 µM, first compound 0.1 µM
[9] = second compound 0.1 µM, first compound 0.316 µM
[10] = second compound 0.1 µM, first compound 1 µM
[11] = second compound 0.1 µM, first compound 3.16 µM
[12] = second compound 0.1 µM, first compound 10 µM
[13] = second compound 0.316 µM, first compound 0.0316 µM
[14] = second compound 0.316 µM, first compound 0.1 µM
[15] = second compound 0.316 µM, first compound 0.316 µM
[16] = second compound 0.316 µM, first compound 1 µM
[17] = second compound 0.316 µM, first compound 3.16 µM
[18] = second compound 0.316 µM, first compound 10 µM
[19] = second compound 1 µM, first compound 0.0316 µM
[20] = second compound 1 µM, first compound 0.1 µM
[21] = second compound 1 µM, first compound 0.316 µM
[22] = second compound 1 µM, first compound 1 µM
[23] = second compound 1 µM, first compound 3.16 µM
[24] = second compound 1 µM, first compound 10 µM
[25] = second compound 3.16 µM, first compound 0.0316 µM
[26] = second compound 3.16 µM, first compound 0.1 µM
[27] = second compound 3.16 µM, first compound 0.316 µM
[28] = second compound 3.16 µM, first compound 1 µM
[29] = second compound 3.16 µM, first compound 3.16 µM
[30] = second compound 3.16 µM, first compound 10 µM
[31] = second compound 10 µM, first compound 0.0316 µM
[32] = second compound 10 µM, first compound 0.1 µM
[33] = second compound 10 µM, first compound 0.316 µM
[34] = second compound 10 µM, first compound 1 µM
[35] = second compound 10 µM, first compound 3.16 µM
[36] = second compound 10 µM, first compound 10 µM
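Further: spheroids exposed to compounds for seven days before readout.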

In the case of CCCS(=O)(=O)Nc1ccc(F)c(C(=O)c2c[nH]c3ncc(-c4ccc(Cl)cc4)cc23)c1F + CN(C)c1ccc(Nc2c3ccc(NC(=O)CCN4CCCC4)cc3nc3cc(NC(=O)CCN4CCCC4)ccc23)cc1, the IC50 (second compound 0.0316 µM) is reported as > 10 µM, the IC50 (second compound 0.1 µM) is reported as > 10 µM and the IC50 (second compound 0.316 µM) is reported as > 10 µM. For the same compound, the IC50 (second compound 1 µM) was > 10 µM, the IC50 (second compound 3.16 µM) was > 10 µM and the IC50 (second compound 10 µM) was > 10 µM. For the same compound, the viability, T/C [1] was 108%, the viability, T/C [2] was 99.9% and the viability, T/C [3] was 106%. For the same compound, the viability, T/C [4] was 106%, the viability, T/C [5] was 122% and the viability, T/C [6] was 68.1%. It also gave a viability, T/C [7] of 103%, a viability, T/C [8] of 94.5% and a viability, T/C [9] of 104%. For the same compound, the viability, T/C [10] was 109%, the viability, T/C [11] was 111% and the viability, T/C [12] was 65.9%. For the same compound, the viability, T/C [13] was 105%, the viability, T/C [14] was 108% and the viability, T/C [15] was 101%. It also gave a viability, T/C [16] of 106%, a viability, T/C [17] of 123% and a viability, T/C [18] of 68.3%. The viability, T/C [19] was 98.7%, the viability, T/C [20] was 99.3% and the viability, T/C [21] was 107%. For the same compound, the viability, T/C [22] was 119%, the viability, T/C [23] was 121% and the viability, T/C [24] was 64.2%. For the same compound, the viability, T/C [25] was 91%, the viability, T/C [26] was 103% and the viability, T/C [27] was 94.5%. The viability, T/C [28] was 100%, the viability, T/C [29] was 110% and the viability, T/C [30] was 72.4%. It also gave a viability, T/C [31] of 86.6%, a viability, T/C [32] of 89.3% and a viability, T/C [33] of 90.9%. The viability, T/C [34] was 91.2%, the viability, T/C [35] was 90% and the viability, T/C [36] was 67.5%.

COc1ncnc(C2CC2)c1-c1ncc2cnn(Cc3ccc(-c4nc(C(F)(F)F)cn4C(C)C)cc3)c2n1 + CN(C)c1ccc(Nc2c3ccc(NC(=O)CCN4CCCC4)cc3nc3cc(NC(=O)CCN4CCCC4)ccc23)cc1 was tested, and the IC50 (second compound 0.0316 µM) was > 10 µM, the IC50 (second compound 0.1 µM) was > 10 µM and the IC50 (second compound 0.316 µM) was > 10 µM. The IC50 (second compound 1 µM) was > 10 µM, the IC50 (second compound 3.16 µM) was > 10 µM and the IC50 (second compound 10 µM) was > 10 µM. The viability, T/C [1] was 101%, the viability, T/C [2] was 92.4% and the viability, T/C [3] was 91.7%. The viability, T/C [4] was 96.4%, the viability, T/C [5] was 105% and the viability, T/C [6] was 102%. It also gave a viability, T/C [7] of 105%, a viability, T/C [8] of 95.4% and a viability, T/C [9] of 91.1%. It also gave a viability, T/C [10] of 93.2%, a viability, T/C [11] of 101% and a viability, T/C [12] of 101%. The viability, T/C [13] was 97.7%, the viability, T/C [14] was 97.5% and the viability, T/C [15] was 88.9%. It also gave a viability, T/C [16] of 94.3%, a viability, T/C [17] of 96.1% and a viability, T/C [18] of 83.1%. It also gave a viability, T/C [19] of 96.7%, a viability, T/C [20] of 93.7% and a viability, T/C [21] of 91.5%. The viability, T/C [22] was 91.3%, the viability, T/C [23] was 101% and the viability, T/C [24] was 93.3%. For the same compound, the viability, T/C [25] was 93.9%, the viability, T/C [26] was 91.7% and the viability, T/C [27] was 84.9%. The viability, T/C [28] was 96.6%, the viability, T/C [29] was 99% and the viability, T/C [30] was 92.9%. The viability, T/C [31] was 83.3%, the viability, T/C [32] was 80.6% and the viability, T/C [33] was 85.5%. The viability, T/C [34] was 80.8%, the viability, T/C [35] was 79.7% and the viability, T/C [36] was 75%.

With Cc1[nH]c2ccccc2c1CCNCc1ccc(/C=C/C(=O)NO)cc1 + CN(C)c1ccc(Nc2c3ccc(NC(=O)CCN4CCCC4)cc3nc3cc(NC(=O)CCN4CCCC4)ccc23)cc1 the IC50 (second compound 0.0316 µM) was > 0.316 µM, the IC50 (second compound 0.1 µM) was > 0.316 µM and the IC50 (second compound 0.316 µM) was > 0.316 µM. The IC50 (second compound 1 µM) was > 0.316 µM, the IC50 (second compound 3.16 µM) was > 0.316 µM and the IC50 (second compound 10 µM) was > 0.316 µM. For the same compound, the viability, T/C (second compound 0.0316 µM, first compound 0.000999 µM) was 105%, the viability, T/C (second compound 0.0316 µM, first compound 0.00316 µM) was 111% and the viability, T/C (second compound 0.0316 µM, first compound 0.00999 µM) was 106%. For the same compound, the viability, T/C [1] was 101%, the viability, T/C (second compound 0.0316 µM, first compound 0.0999 µM) was 106% and the viability, T/C [3] was 72.2%. It also gave a viability, T/C (second compound 0.1 µM, first compound 0.000999 µM) of 119%, a viability, T/C (second compound 0.1 µM, first compound 0.00316 µM) of 93.9% and a viability, T/C (second compound 0.1 µM, first compound 0.00999 µM) of 112%. It also gave a viability, T/C [7] of 99.3%, a viability, T/C (second compound 0.1 µM, first compound 0.0999 µM) of 97.3% and a viability, T/C [9] of 69.7%. For the same compound, the viability, T/C (second compound 0.316 µM, first compound 0.000999 µM) was 98.2%, the viability, T/C (second compound 0.316 µM, first compound 0.00316 µM) was 97.5% and the viability, T/C (second compound 0.316 µM, first compound 0.00999 µM) was 95.2%. The viability, T/C [13] was 96.5%, the viability, T/C (second compound 0.316 µM, first compound 0.0999 µM) was 105% and the viability, T/C [15] was 78.4%. It also gave a viability, T/C (second compound 1 µM, first compound 0.000999 µM) of 97.8%, a viability, T/C (second compound 1 µM, first compound 0.00316 µM) of 106% and a viability, T/C (second compound 1 µM, first compound 0.00999 µM) of 98.8%. It also gave a viability, T/C [19] of 108%, a viability, T/C (second compound 1 µM, first compound 0.0999 µM) of 98% and a viability, T/C [21] of 68%. The viability, T/C (second compound 3.16 µM, first compound 0.000999 µM) was 93.4%, the viability, T/C (second compound 3.16 µM, first compound 0.00316 µM) was 101% and the viability, T/C (second compound 3.16 µM, first compound 0.00999 µM) was 101%. The viability, T/C [25] was 92.8%, the viability, T/C (second compound 3.16 µM, first compound 0.0999 µM) was 86.8% and the viability, T/C [27] was 61.1%. For the same compound, the viability, T/C (second compound 10 µM, first compound 0.000999 µM) was 87.5%, the viability, T/C (second compound 10 µM, first compound 0.00316 µM) was 85.9% and the viability, T/C (second compound 10 µM, first compound 0.00999 µM) was 94.7%. It also gave a viability, T/C [31] of 82.6%, a viability, T/C (second compound 10 µM, first compound 0.0999 µM) of 91.1% and a viability, T/C [33] of 61.1%.
